Experimental data reported in US9365614B2, “IAP BIR domain binding compounds” (priority 2006, dated 2016).
Where two headings read alike, the source gives them in different places. *1 amine or outer side, *2 acyl side, *3 side chain or, on linkers, in order; H or OH if unused. Where a SMILES comes first, the peptide text is derived from it. Bridges are numbered along the chain shown (N, C = ends). Roman numbers before positions name the chains, in order. [ ]: non-standard residue; d: D form. The star is where a group is joined. cisHyp = O=C(O)[C@@H]1C[C@H](O)CN1; pXylylene = c1cc(C[*:2])ccc1C[*:1]; NHPhenethyl = c1ccc(CCN*)cc1; Tle = CC(C)(C)[C@H](N)C(=O)O; NMeA = CN[C@@H](C)C(=O)O

Columns and labels:
MDA-MB231 cells = experiment: Survival MTT assay, MDA-MB-231; format: cell-based; conditions: Homo sapiens, 72 h
Description: (§1) One day prior the treatment with compound, 2000 to 4000 cells per well were plated in a tissue culture treated 96 well format dish with 100 ul of media and incubated at 37° C., 5% CO2. On the day of compound treatment, compounds were diluted with cell culture media to a working stock concentration of 2×. 100 uL of diluted compound were then added to each well. The treated plate was incubated for 72 h at 37° C., 5% CO2. Upon incubation, the cell viability was assessed as followed 20 uL of MTT reagent at 5 mg/ml were added per well to cell plate. The plate was incubated for 2 h at 37° C. in presence of 5% CO2. The supernatant was then removed from the plate and 100 uL of isopropanol were added. The absorbance was measured in a TECAN spectrophotometer at 570 nm. The percentage of viability was expressed in percentage of the signal obtained with non treated cells.

SKOV-3 cells = experiment: Survival MTT assay, SKOV-3; format: cell-based; conditions: Homo sapiens, SK-OV-3, 72 h
Description: as §1

SMILES | EC50 (MDA-MB231 cells) | EC50 (SKOV-3 cells; read-out: SKOV-3 EC50) | EC50 (SKOV-3 cells; read-out: EC50 against SKOV3)
CC(C)(C)[C@H](NC(=O)[C@@H](N)CO)C(=O)N1C[C@@H](OCC#CC#CCO[C@H]2C[C@@H](C(=O)N[C@@H]3CCCc4ccccc43)N(C(=O)[C@@H](NC(=O)[C@@H](N)CO)C(C)(C)C)C2)C[C@H]1C(=O)N[C@@H]1CCCc2ccccc21 [Compound 5] | > 1 µM |  | 
CN[C@@H](C)C(=O)N[C@H](C(=O)C1C[C@@H](NC(=O)CCCCCCCCC(=O)N[C@H]2C[C@@H](C(=O)N[C@@H]3CCCc4ccccc43)N(C(=O)[C@@H](NC(=O)[C@H](C)NC)C(C)(C)C)C2)C[C@H]1C(=O)N[C@@H]1CCCc2ccccc21)C(C)(C)C (stereo partly drawn) [Compound 2] | < 0.05 µM | < 0.05 µM | 
CN[C@@H](C)C(=O)N[C@H](C(=O)N1C[C@@H](OCc2ccc(CO[C@H]3C[C@@H](C(=O)NCCc4ccccc4)N(C(=O)[C@@H](NC(=O)[C@H](C)NC)C(C)(C)C)C3)cc2)C[C@H]1C(=O)NCCc1ccccc1)C(C)(C)C [Compound 29] (I: H-[NMeA]-[Tle]-[cisHyp]-NHPhenethyl / II: H-[NMeA]-[Tle]-[cisHyp]-NHPhenethyl; linker I:3-II:3 via pXylylene) |  | < 0.25 µM | 0.088 µM
CN[C@@H](C)C(=O)N[C@H](C(=O)N1C[C@@H](OCC#CC#CCO[C@H]2C[C@@H](C(=O)N[C@@H]3CCCc4ccccc43)N(C(=O)[C@@H](NC(=O)[C@H](C)NC)C(C)(C)C)C2)C[C@H]1C(=O)N[C@@H]1CCCc2ccccc21)C(C)(C)C [Compound 1] | < 0.05 µM | < 0.05 µM | 
CN[C@@H](C)C(=O)N[C@H](C(=O)N1C[C@@H](NC(=O)c2ccc(C(=O)N[C@H]3C[C@@H](C(=O)N[C@@H]4CCCc5ccccc54)N(C(=O)[C@@H](NC(=O)[C@H](C)NC)C(C)(C)C)C3)cc2)C[C@H]1C(=O)N[C@H]1CCCc2ccccc21)C(C)(C)C [Compound 23] |  | < 0.05 µM | 
CN[C@@H](C)C(=O)NC(C(=O)N1C[C@@H](NC(=O)CNC(=O)c2cccc(C(=O)NCC(=O)N[C@H]3C[C@@H](C(=O)N[C@@H]4CCCc5ccccc54)N(C(=O)[C@@H](NC(=O)[C@H](C)NC)C(C)(C)C)C3)c2)CC1C(=O)N[C@@H]1CCCc2ccccc21)C(C)(C)C (stereo partly drawn) [Compound 37] |  | > 1 µM | 
CN[C@@H](C)C(=O)N[C@H](C(=O)N1C[C@@H](NC(=O)c2cncc(C(=O)N[C@H]3C[C@@H](C(=O)N[C@@H]4CCCc5ccccc54)N(C(=O)[C@@H](NC(=O)[C@H](C)NC)C(C)(C)C)C3)c2)C[C@H]1C(=O)N[C@@H]1CCCc2ccccc21)C(C)(C)C [Compound 41] |  | < 0.05 µM | 
CN[C@@H](C)C(=O)N[C@H](C(=O)N1C[C@@H](NC(=O)c2ccc(C(=O)N[C@H]3C[C@@H](C(=O)N[C@@H](CO)c4ccccc4)N(C(=O)[C@@H](NC(=O)[C@H](C)NC)C(C)(C)C)C3)cc2)C[C@H]1C(=O)N[C@@H](CO)c1ccccc1)C(C)(C)C [Compound 54] |  | > 1 µM | 
CN[C@@H](C)C(=O)N[C@H](C(=O)N1C[C@@H](NS(=O)(=O)c2ccc3cc(S(=O)(=O)N[C@H]4C[C@@H](C(=O)N[C@@H]5CCCc6ccccc65)N(C(=O)[C@@H](NC(=O)[C@H](C)NC)C(C)(C)C)C4)ccc3c2)C[C@H]1C(=O)N[C@@H]1CCCc2ccccc21)C(C)(C)C [Compound 56] |  | < 0.05 µM | 
CN[C@@H](C)C(=O)N[C@H](C(=O)N1C[C@@H](NC(=O)c2ccc(C(=O)N[C@H]3C[C@@H](CN(CCc4ccccc4)C(=O)c4ccccc4)N(C(=O)[C@@H](NC(=O)[C@H](C)NC)C(C)(C)C)C3)cc2)C[C@H]1CN(CCc1ccccc1)C(=O)c1ccccc1)C(C)(C)C [Compound 27] |  | < 0.25 µM | 
CN[C@@H](C)C(=O)N[C@H](C(=O)N1C[C@@H](NC(=O)c2ccc(C(=O)N[C@H]3C[C@@H](CN(CCc4ccc(F)cc4)C(C)=O)N(C(=O)[C@@H](NC(=O)[C@H](C)NC)C(C)(C)C)C3)cc2)C[C@H]1CN(CCc1ccc(F)cc1)C(C)=O)C(C)(C)C [Compound 28] |  | < 0.05 µM | 
CN[C@@H](C)C(=O)N[C@H](C(=O)N1C[C@@H](NC(=O)c2cccc(C(=O)N[C@H]3C[C@@H](C(=O)N[C@@H]4CCCc5ccccc54)N(C(=O)[C@@H](NC(=O)[C@H](C)NC)C(C)(C)C)C3)n2)C[C@H]1C(=O)N[C@@H]1CCCc2ccccc21)C(C)(C)C [Compound 43] |  | < 0.25 µM | 
CN[C@@H](C)C(=O)N[C@H](C(=O)N1C[C@@H](NC(=O)c2ccc(C(=O)N[C@H]3C[C@@H](C(=O)N[C@@H]4CCCc5ccccc54)N(C(=O)[C@@H](NC(=O)[C@H](C)NC)C(C)(C)C)C3)cc2)C[C@H]1C(=O)N[C@@H]1CCCc2ccccc21)C(C)(C)C [Compound 55] |  | < 0.05 µM | 
CN[C@@H](C)C(=O)N[C@H](C(=O)N1C[C@@H](NC(=O)c2ccc(C(=O)N[C@H]3C[C@@H](C(=O)N[C@@H]4CCCc5ccccc54)N(C(=O)[C@@H](NC(=O)[C@H](C)NC)C(C)(C)C)C3)cc2)C[C@H]1C(=O)NC1CCCc2ccccc21)C(C)(C)C (stereo partly drawn) [Compound 34] |  | < 0.25 µM | 
CN[C@@H](C)C(=O)N[C@H](C(=O)N1CC(NC(=O)CCCCCC(=O)N[C@H]2C[C@@H](C(=O)N[C@@H]3CCCc4ccccc43)N(C(=O)[C@@H](NC(=O)[C@H](C)NC)C(C)(C)C)C2)C[C@H]1C(=O)NC1CCCc2ccccc21)C(C)(C)C (stereo partly drawn) [Compound 13] |  | < 0.05 µM | 
CN[C@@H](C)C(=O)N[C@H](C(=O)N1C[C@@H](NC(=O)c2ccc(C(=O)N[C@H]3C[C@@H](CN(CCc4ccccc4)C(C)=O)N(C(=O)[C@@H](NC(=O)[C@H](C)NC)C(C)(C)C)C3)cc2)C[C@H]1CN(CCc1ccccc1)C(C)=O)C(C)(C)C [Compound 25] |  | < 0.05 µM | 
CN[C@@H](C)C(=O)C[C@H](C(=O)N1C[C@@H](NC(=O)CCCCCCCC(=O)N[C@H]2C[C@@H](C(=O)N[C@@H]3CCCc4ccccc43)N(C(=O)[C@@H](NC(=O)[C@H](C)NC)C(C)(C)C)C2)C[C@H]1C(=O)N[C@@H]1CCCc2ccccc21)C(C)(C)C [Compound 12] |  | < 0.05 µM | 
CN[C@@H](C)C(=O)N[C@H](C(=O)N1C[C@@H](NC(=O)c2ccc(Oc3ccc(C(=O)N[C@H]4C[C@@H](C(=O)N[C@@H]5CCCc6ccccc65)N(C(=O)[C@@H](NC(=O)[C@H](C)NC)C(C)(C)C)C4)cc3)cc2)C[C@H]1C(=O)N[C@@H]1CCCc2ccccc21)C(C)(C)C [Compound 16] |  | < 0.05 µM | 
CN[C@@H](C)C(=O)N[C@H](C(=O)N1C[C@@H](NC(=O)c2ccc(C(=O)N[C@H]3C[C@@H](C(=O)NCCc4ccccc4)N(C(=O)[C@@H](NC(=O)[C@H](C)NC)C(C)(C)C)C3)cc2)C[C@H]1C(=O)NCCc1ccccc1)C(C)(C)C [Compound 20] |  | < 0.05 µM | 
CN[C@@H](C)C(=O)N[C@H](C(=O)N1C[C@@H](NC(=O)c2ccc(C(=O)N[C@H]3C[C@@H](C(=O)NC(c4ccccc4)c4ccccc4)N(C(=O)[C@@H](NC(=O)[C@H](C)NC)C(C)(C)C)C3)cc2)C[C@H]1C(=O)NC(c1ccccc1)c1ccccc1)C(C)(C)C [Compound 24] |  | < 0.05 µM | 
CN[C@@H](C)C(=O)N[C@H](C(=O)N1C[C@@H](NC(=O)CNC(=O)c2ccc(C(=O)NCC(=O)N[C@H]3C[C@@H](C(=O)N[C@@H]4CCCc5ccccc54)N(C(=O)[C@@H](NC(=O)[C@H](C)NC)C(C)(C)C)C3)cc2)C[C@H]1C(=O)N[C@@H]1CCCc2ccccc21)C(C)(C)C [Compound 35] |  | < 0.25 µM | 
CN[C@@H](C)C(=O)N[C@H](C(=O)N1C[C@@H](NC(=O)c2ccc(C(=O)N[C@H]3C[C@@H](CN(CCc4ccc(F)cc4)S(C)(=O)=O)N(C(=O)[C@@H](NC(=O)[C@H](C)NC)C(C)(C)C)C3)cc2)C[C@H]1CN(CCc1ccc(F)cc1)S(C)(=O)=O)C(C)(C)C [Compound 30] |  | > 1 µM | 0.188 µM
CN[C@@H](C)C(=O)N[C@H](C(=O)N1C[C@@H](NC(=O)c2ccc(C(=O)N[C@H]3C[C@@H](C(=O)NCc4ccccc4)N(C(=O)[C@@H](NC(=O)[C@H](C)NC)C(C)(C)C)C3)cc2)C[C@H]1C(=O)NCc1ccccc1)C(C)(C)C [Compound 46] |  | < 0.25 µM | 
